We go through five molecules from patent publication US8916686B2, “TDF-related compounds and analogs thereof” (Thrasos Innovation, Inc., priority 2004, dated 2014).

Experiment [1] has as its system synovial membrane-derived mesenchymal stem cells. The experiment can be described thus: Chondrogenic differentiation, extracellular matrix deposition by alcian blue staining. It counts as cell-based. An excerpt:
Influence of compounds SEQ ID NO 16, 33, 45, 217, 221 on chondrogenic differentiation of synovial membrane-derived mesenchymal stem cells leading to increased extracellular matrix deposition as determined by alcian blue staining. SEQ ID NO:16, 33, 45, 217, and 221 correspond to Compounds E, A, C, B, and D, respectively.
TDFRP compounds can be used to in the prophylaxis or treatment of diseases of the oral cavity, e.g., by affecting direct capping of bioactive molecules, or inducing the formation of reparative dentin and coronal or radicular pulp mineralization (Goldberg et al., Am J. Dent. 2003 February; 16(1):66-76). Further, TDFRP can be used in the prophylaxis or treatment of periodontal disease. […] TDFRP compounds can be used in the prophylaxis or treatment of traumatic brain injury, e.g., stroke, see, e.g., Cairns and Finkelstein, Phys Med Rehabil Clin N Am. 2003 February; 14(1 Suppl):S135-42). Intravenous administration of BMP-7 after ischemia improves motor function in stroke rats (Chang et al., Stroke. 2003 February; 34(2):558-64) and the TDFRP compounds may protect against or repair reperfusion injury. […] Thrasos compounds that bind to ALK3, a type I receptor for BMP, are therefore analyzed to examine if they induce chondrogenic differentiation leading to extra cellular matrix deposition in synovial membrane-derived mesenchymal stem cells. […]

For experiment [2], the system named is rat osteosarcoma (17/2.8) cells. The experiment can be described thus: Rat osteosarcoma (ROS) cell-based alkaline phosphatase assay. To be noted: 0.02-200 uM, 2 days; relative to BMP-7 standard. How it is done: BMP interactions with Type I and Type II receptors can induce alkaline phosphatase activity, a marker for osteoblast activity, in ROS cells. An assay procedure as described earlier (Maliakal, J.C., Asahina, I., Hauschka, P. V., and Sampath, T. K. (1994) Growth factors 11, 227-234) was used to determine the biological activities of TDFRP compounds. In a typical experiment, rat osteosarcoma (17/2.8) cells are plated in 96 well plates (3.0×10^4 cells/well) and incubated overnight at 37 C in 5-6% CO2 incubator. The next day, healthy and confluent cells are treated with increasing concentrations of BMP-7 standard (1-10,000 ng/ml) served as positive control or TDFRP compounds (0.02-200 uM) prepared in medium containing 1% FBS and incubated for 2 days at 37 C in 5-6% CO2 incubator. The cellular content of alkaline phosphatase activity is determined by the method of Reddi and Huggins (Reddi, A. H., and Huggins, C. B (1972) Proc. Natl. Acad. Sci. USA 69, 1601-1605). Enzyme estimations are performed in 96 well plates. Following removal of culture medium, cells are washed with pre-warmed PBS (150 ul) and incubated in 100 ul of pre-warmed 1% Triton X-100 for 30 minutes at 37 C. Plates are centrifuged for 10 minutes at full speed, and recovered samples (15 ul) are assayed for enzyme activity by adding 90 ul p-nitrophenyl phosphate (Sigma) as a substrate in 0.05 M glycine-NaOH buffer, pH 9.3 and incubating for 20 minutes at 37 C. The reaction is stopped by adding 75 ul of 0.2 N NaOH/well and absorbance at 405/490 nm is measured on a Dynatech MR 700 plate reader. Results are expressed as relative activities compared to a BMP-7 standard.

The subject of experiment [3] is rat after ligation of the coronary artery. The experiment can be described thus: LAD occlusion model of myocardial injury (ischemia/reperfusion). To be noted: day 7; compound 10 mg/kg i.v., rhmBMP-7 160 μg/kg i.v. It counts as in vivo. How it is done: The efficacy of compound SEQ ID #45 in ameliorating the effects of myocardial ischemia was investigated in the rat after ligation of the coronary artery. […] unmanipulated rats, sorted into two large groups by initial body weight (>300 g pre-surgery) were evaluated. Fourteen rats underwent surgery on week, 12 rats underwent surgery on week 2 and rats were sorted into 3 treatment groups: Group 1, PBS; Group 2, positive control TDF-1; Group 3, test article SEQ ID #45 (see Table X).
Three days prior to surgery, a serum sample was collected from the tail vein of each rat (pre-bleed). On the day of surgery, each rat was administered compound intravenously 2 hr prior to surgery. Surgery was performed sequentially after intubation and ventilation with 0.5% isofluorane anesthetic. Lead II ECG was monitored throughout the surgery. A thoracotomy was performed and the main left coronary artery was occluded for 20 min using a snare technique (FIG. 16). Successful occlusion of the artery was confirmed by ST elevation in lead II ECG within the first 5 minutes of ligation, and by frequent ventricular arrhythmia after 10 minutes of ligation. The snare was released to restore blood flow. The original suture loop was left in place for subsequent re-occlusion on Day 7. After initiation of reperfusion, the chest cavity was closed with 2 layers of suture. Rats were weaned from the ventilator and observed until fully conscious and mobile. Antibiotic (QD) and analgesic (Q8D) were provided. Additional serum samples were collected 6, 24, 72 and 120 hours post occlusion. Additional compound, positive control or vehicle treatments were delivered by intravenous injection in the tail vein at 24, 72 and 120 hours post occlusion.
On Day 7, each rat was anesthetized (ketamine:xyline), the chest cavity re-opened and a terminal blood sample (1 ml) was withdrawn from the abdominal vein. Gross pathology (i.e. inflammation) was noted and graded on a 4 point inflammation scale: 0=no inflammation, 1=slight, 2=moderate, 3=severe and 4=complete pericarditis. The left coronary artery was then re-occluded using the existing stitch and a concentrated solution of Evans Blue dye in saline (20 mg/ml; 0.5 ml/rat) was injected into the heart apex to stain the non-ischemic cardiac tissue blue. The heart was then arrested by injection of a saturated solution of potassium chloride into the right ventricle. The heart was then excised, wrapped in cellophane and stored at −20° C. for 1.5 hour. The cold heart was cut into 10 cross-sectional slices (2 mm/slice) and each section was numbered and incubated separately in triphenyltetrazolium chloride (1% TTC in PBS) for 10 minutes at 37° C. prior to fixing in 4% formaldehyde. Subsequently, each slice was photographed. For each slice, the “area at risk (AR)” and the “area occupied by necrosis (AN)” were measured by morphometry. The ratio of AN to AR is a measure of the degree of damage resulting from the occlusion (FIG. 17A-FIG. 17B).

For experiment [4], the system named is mouse model of nephrotoxic serum nephritis. The settings on record: cited from earlier work.
The subject of experiment [5] is TGF-beta1 induced EMT in epithelial cells. To be noted: 100 ng/ml for 48 hours; cited from earlier work.

Regarding CIVNSSDDFLCKKYRS [SEQ ID NO 16], the “deposition of the extracellular matrix” value in experiment [1] is listed as “significantly increased the deposition of the extracellular matrix”.
Turning to CYFDDSSKVICKKYRS [SEQ ID NO 130], in experiment [2], the “induction of alkaline phosphatase activity” value (“induction” for short) is “did not induce alkaline phosphatase activity”.
Regarding CYFDDSSQVLCKKYRS [SEQ ID NO 65], the “induction” value in experiment [2] was “did not induce alkaline phosphatase activity”.
Take CYFNDSSQVLCKRYRS [SEQ ID NO 221]: in experiment [1], the “deposition of the extracellular matrix” value is recorded as “significantly increased the deposition of the extracellular matrix”. Besides, in experiment [2], the “induction” value is given as “did not induce alkaline phosphatase activity”.

B1: BMP-7: bone morphogenetic protein-7 (OP-1, TDF-1); mature form of recombinant human BMP-7 used as positive control (protein)
chain: STGSKQRSQNRSKTPKNQEALRMANVAENSSSDQRQACKKHELYVSFRDLGWQDWIIAPEGYAAYYCEGECAFPLNSYMNATNHAIVQTLVHFINPETVPKPCCAPTQLNAISVLYFDDSSNVILKKYRNMVVRACGCH
B1: the “reduction in AN/AR ratio as compared to PBS-treated animals” value in experiment [3] is given as 7%. For the same molecule, in experiment [4] (about 300 micrograms/kg, starting after one week of NTN), the “progression to chronic renal disease” value was “sufficient to prevent progression to chronic renal disease”. The renal pathology result in experiment [4] (treatment from week 3 through week 6 and from week 4 through week 6) is “almost completely reversed renal pathology”. Moreover, in experiment [5], the “reversal of TGF-beta1 induced EMT” value is on record as “reverses TGF-beta1 induced EMT”.
